Row | melting point [°C] | Structure (SMILES)
1 | 139 to 141 | CC(C)NCc1ccc(C(=O)Nc2nc(-c3ccccc3)c(-c3ccc(=O)n(C(C)C)n3)s2)cc1 [Example 152, 4-[(Isopropylamino)methyl]-N-[5-(1-isopropyl-6-oxo-1,6-dihydro-3-pyridazinyl)-4-phenyl-1,3-thiazol-2-yl]benzamide]
2 | 239 to 240 | CC(C)n1nc(-c2sc(Nc3cccc4ccccc34)nc2-c2ccccc2)ccc1=O [Example 72, 2-Isopropyl-6-[2-(1-naphthylamino)-4-phenyl-1,3-thiazol-5-yl]-3(2H)-pyridazinone]
3 | 186 to 187 | CC(C)n1nc(-c2sc(C(=O)NCc3ccccc3)nc2-c2ccccc2)ccc1=O [Example 220, N-Benzyl-5-(1-isopropyl-6-oxo-1,6-dihydro-3-pyridazinyl)-4-phenyl-1,3-thiazole-2-carboxamide]
4 | 141 to 142 | CCCNC(=O)c1nc(-c2ccccc2)c(-c2ccc(=O)n(C(C)C)n2)s1 [Example 173, 5-(1-isopropyl-6-oxo-1,6-dihydro-3-pyridazinyl)-4-phenyl-N-propyl-1,3-thiazole-2-carboxamide]
5 | 138 to 140 | CC(C)n1nc(-c2sc(NC(=O)N3CCCCC3)nc2-c2ccccc2)ccc1=O [Example 52, N-[5-(1-Isopropyl-6-oxo-1,6-dihydro-3-pyridazinyl)-4-phenyl-1,3-thiazol-2-yl]-1-piperidinecarboxamide]
6 | 154 to 154.5 | CC(C)NC(=O)c1nc(-c2ccccc2)c(-c2ccc(=O)n(C)n2)s1 [Example 177, N-isopropyl-5-(1-methyl-6-oxo-1,6-dihydro-3-pyridazinyl)-4-phenyl-1,3-thiazole-2-carboxamide]
7 | 94 to 96 | CC(C)n1nc(-c2sc(NC(=O)CN(C)CCc3ccccn3)nc2-c2ccccc2)ccc1=O [Example 111, N-[5-(1-Isopropyl-6-oxo-1,6-dihydro-3-pyridazinyl)-4-phenyl-1,3-thiazol-2-yl]-2-{methyl[2-(2-pyridinyl)ethyl]amino}acetamide]
8 | 222 to 224 | CC(C)n1nc(-c2sc(NC(=O)c3ccc(CN4CCOCC4)cc3)nc2-c2ccccc2)ccc1=O [Example 27, N-[5-(1-Isopropyl-6-oxo-1,6-dihydro-3-pyridazinyl)-4-phenyl-1,3-thiazol-2-yl]-4-(4-morpholinylmethyl)benzamide]
9 | 165 to 167 | CC(=O)N(C)c1nc(-c2ccccc2)c(-c2ccc(=O)n(C(C)C)n2)s1 [Example 22, N-[5-(1-isopropyl-6-oxo-1,6-dihydro-3-pyridazinyl)-4-phenyl-1,3-thiazol-2-yl]-N-methylacetamide]
10 | 167 to 169 | CCNc1nc(-c2ccccc2)c(-c2ccc(=O)n(C(C)C)n2)s1 [Example 62, 6-[2-(Ethylamino)-4-phenyl-1,3-thiazol-5-yl]-2-isopropyl-3(2H)-pyridazinone]
11 | > 250 | CC(C)n1nc(-c2sc(NC(=O)c3ccc(Cn4ccnc4)cc3)nc2-c2ccccc2)ccc1=O [Example 139, 4-(1H-Imidazol-1-ylmethyl)-N-[5-(1-isopropyl-6-oxo-1,6-dihydro-3-pyridazinyl)-4-phenyl-1,3-thiazol-2-yl]benzamide]
12 | 220 to 222 | CC(=O)N1CCN(CC(=O)Nc2nc(-c3ccccc3)c(-c3ccc(=O)n(C(C)C)n3)s2)CC1 [Example 150, 2-(4-Acetyl-1-piperazinyl)-N-[5-(1-isopropyl-6-oxo-1,6-dihydro-3-pyridazinyl)-4-phenyl-1,3-thiazol-2-yl]acetamide]
13 | > 250 | CC(C)n1nc(-c2sc(NC(=N)N)nc2-c2ccccc2)ccc1=O [Example 63, N-[5-(1-Isopropyl-6-oxo-1,6-dihydro-3-pyridazinyl)-4-phenyl-1,3-thiazol-2-yl]guanidine]
14 | 86 to 88 | CC(C)n1nc(-c2sc(NC(=O)c3ccc(CNCCN4CCOCC4)cc3)nc2-c2ccccc2)ccc1=O [Example 140, N-[5-(1-Isopropyl-6-oxo-1,6-dihydro-3-pyridazinyl)-4-phenyl-1,3-thiazol-2-yl]-4-({[2-(4-morpholinyl)ethyl]amino}methyl)benzamide]
15 | 161.5 to 162.5 | CC(C)n1nc(-c2sc(C(=O)N3CCOCC3)nc2-c2ccccc2)ccc1=O [Example 227, 2-Isopropyl-6-[2-(4-morpholinylcarbonyl)-4-phenyl-1,3-thiazol-5-yl]-3(2H)-pyridazinone]
16 | 163.5 to 165 | O=c1ccc(-c2sc(NCc3ccccc3)nc2-c2ccccc2)nn1Cc1ccccc1 [Example 92, 2-benzyl-6-[2-(benzylamino)-4-phenyl-1,3-thiazol-5-yl]-3(2H)-pyridazinone]
17 | 151 to 152.5 | O=C(NC1CC1)c1nc(-c2ccccc2)c(-c2ccc(=O)n(Cc3ccccc3)n2)s1 [Example 194, 5-(1-benzyl-6-oxo-1,6-dihydro-3-pyridazinyl)-N-cyclopropyl-4-phenyl-1,3-thiazole-2-carboxamide]
18 | 252 to 253 | CCOCCNCC(=O)Nc1nc(-c2ccccc2)c(-c2ccc(=O)n(C(C)C)n2)s1.Cl
19 | 146.5 to 147.5 | CCCn1nc(-c2sc(C(=O)NC(C)C)nc2-c2ccccc2)ccc1=O [Example 179, N-isopropyl-5-(6-oxo-1-propyl-1,6-dihydro-3-pyridazinyl)-4-phenyl-1,3-thiazole-2-carboxamide]
20 | 168 to 169.5 | COCCn1nc(-c2sc(C(=O)NCc3ccccn3)nc2-c2ccccc2)ccc1=O [Example 206, 5-[1-(2-Methoxyethyl)-6-oxo-1,6-dihydro-3-pyridazinyl]-4-phenyl-N-(2-pyridinylmethyl)-1,3-thiazole-2-carboxamide]
21 | 147.5 to 148.5 | CCCCNC(=O)c1nc(-c2ccccc2)c(-c2ccc(=O)n(C(C)C)n2)s1 [Example 215, N-butyl-5-(1-isopropyl-6-oxo-1,6-dihydro-3-pyridazinyl)-4-phenyl-1,3-thiazole-2-carboxamide]
22 | 252 to 253 | COCCNCC(=O)Nc1nc(-c2ccccc2)c(-c2ccc(=O)n(C(C)C)n2)s1.Cl
23 | 212 to 215 | C=CCn1nc(-c2sc(N)nc2-c2ccccc2)ccc1=O [Example 93, 2-Allyl-6-(2-amino-4-phenyl-1,3-thiazol-5-yl)-3(2H)-pyridazinone]
24 | 236 to 237.5 | CC(=O)Nc1nc(-c2ccc(F)cc2)c(-c2ccc(=O)n(C(C)C)n2)s1 [Example 82, N-[4-(4-fluorophenyl)-5-(1-isopropyl-6-oxo-1,6-dihydro-3-pyridazinyl)-1,3-thiazol-2-yl]acetamide]
25 | 156 to 158 | CC(C)n1nc(-c2sc(NC(=O)CNCc3cccnc3)nc2-c2ccccc2)ccc1=O [Example 120, N-[5-(1-Isopropyl-6-oxo-1,6-dihydro-3-pyridazinyl)-4-phenyl-1,3-thiazol-2-yl]-2-[(3-pyridinylmethyl)amino]acetamide]
26 | > 250 | COc1ccccc1C(=O)Nc1nc(-c2ccccc2)c(-c2ccc(=O)n(C(C)C)n2)s1 [Example 41, N-[5-(1-Isopropyl-6-oxo-1,6-dihydro-3-pyridazinyl)-4-phenyl-1,3-thiazol-2-yl]-2-methoxybenzamide]
27 | 129 to 130.5 | CC(C)NC(=O)c1nc(-c2ccccc2F)c(-c2ccc(=O)n(C(C)C)n2)s1 [Example 184, 4-(2-fluorophenyl)-N-isopropyl-5-(1-isopropyl-6-oxo-1,6-dihydro-3-pyridazinyl)-1,3-thiazole-2-carboxamide]

Reference: patent US20050004134A1, “Thiazole derivative and pharmaceutical use thereof” (priority 2001, published 2005)
